The source made the active and inactive calls. No cut-off for these calls is given here.
Key:
[1] = Acute toxicity in 12 hr fasted ICR mouse assessed as effect on spleen at 2000 mg/kg, po measured after 7 days by hematoxylin and eosin staining based histopathological analysis; assay type: organism-based; conditions: in vivo, 168 h, time 7 day
[2] = Acute toxicity in 12 hr fasted ICR mouse assessed as toxic reaction at 2000 mg/kg, po measured daily for 7 days; assay type: organism-based; conditions: in vivo, 168 h, time 7 day
Mus musculus [3] = assay: Anti-inflammatory activity in C57BL/6 mouse model of inflammatory bowel disease assessed as decrease in DSS-induced IL-6 levels in colon tissue at 5 to 20 mg/kg, po daily measured after 10 days by ELISA method; assay type: functional, organism-based; conditions: dose 5-20 mg/kg, time 10.0 day
[4] = biological target: Cyclin-dependent kinase 8 (Homo sapiens) (UniProt P49336); assay: Inhibition of CDK8 in human HCT-116 cells assessed as STAT-1 phosphorylation at Ser727 at 1 to 4 uM treated for 24 hrs by western blot analysis; assay type: cell-based; conditions: dose 1-4 µM
Cyclin-dependent kinase 8 (Homo sapiens), sequence (P49336 whole entry): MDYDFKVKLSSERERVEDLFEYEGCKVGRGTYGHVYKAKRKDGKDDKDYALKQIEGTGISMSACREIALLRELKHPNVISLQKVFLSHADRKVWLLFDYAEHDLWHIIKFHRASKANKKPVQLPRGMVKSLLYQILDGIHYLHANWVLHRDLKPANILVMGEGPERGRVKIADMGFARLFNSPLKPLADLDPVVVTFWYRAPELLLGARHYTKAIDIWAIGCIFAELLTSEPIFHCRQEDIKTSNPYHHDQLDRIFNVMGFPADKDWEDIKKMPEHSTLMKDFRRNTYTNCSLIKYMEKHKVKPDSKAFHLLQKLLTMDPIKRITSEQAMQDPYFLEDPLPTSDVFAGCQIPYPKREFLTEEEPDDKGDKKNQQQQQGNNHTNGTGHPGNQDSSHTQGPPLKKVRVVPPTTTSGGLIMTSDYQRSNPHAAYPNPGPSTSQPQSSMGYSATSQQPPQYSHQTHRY

[5] = biological target: Cyclin-dependent kinase 8 (Homo sapiens) (UniProt P49336); assay: Binding affinity to CDK8 in human HCT-116 cells assessed as reduction in protease-induced CDK8 degradation at 1 to 4 uM treated for 6 hrs followed by protease treatment for 30 mins by western blot analysis; assay type: cell-based; conditions: dose 1-4 µM, time 390.0 min, DDE = dose-dependent effect
Mus musculus [6] = assay: Anti-inflammatory activity in C57BL/6 mouse model of inflammatory bowel disease assessed as decrease in DSS-induced neutrophil infiltration in colon tissue by measuring MPO activity at 5 to 20 mg/kg, po administered for 10 days; assay type: functional, organism-based; conditions: dose 5-20 mg/kg, time 10.0 day, DDE = dose-dependent effect
Mus musculus [7] = assay: Anti-inflammatory activity in C57BL/6 mouse model of inflammatory bowel disease assessed as decrease in DSS-induced ERK phosphorylation in colon tissue at 5 to 20 mg/kg, po measured after 10 days by western blot analysis; assay type: functional, organism-based; conditions: dose 5-20 mg/kg, time 10.0 day, DDE = dose-dependent effect
Mus musculus [8] = assay: Anti-inflammatory activity in C57BL/6 mouse model of inflammatory bowel disease assessed as reduction in DSS-induced epithelium destruction in colon tissue at 5 to 20 mg/kg, po daily measured after 10 days by hematoxylin and eosin staining based histopathological analysis; assay type: functional, organism-based; conditions: dose 5-20 mg/kg, time 10.0 day
[9] = Cmax in Sprague-Dawley rat at 10 mg/kg, po measured for 3 to 1440 mins by HPLC analysis; assay type: ADME, organism-based; conditions: in vivo
[10] = biological target: T1, Cyclin-dependent kinase 8 (Mus musculus) (UniProt Q8R3L8); assay: Inhibition of CDK8 in IFN-gamma-stimulated mouse BMDC cells assessed as STAT-1 phosphorylation at Ser727 at 1 to 4 uM treated for 2 hrs followed by IFN-gamma stimulation for 12 hrs by western blot analysis; assay type: cell-based; conditions: dose 1-4 µM, time 14.0 hrs
T1 sequence (whole entry): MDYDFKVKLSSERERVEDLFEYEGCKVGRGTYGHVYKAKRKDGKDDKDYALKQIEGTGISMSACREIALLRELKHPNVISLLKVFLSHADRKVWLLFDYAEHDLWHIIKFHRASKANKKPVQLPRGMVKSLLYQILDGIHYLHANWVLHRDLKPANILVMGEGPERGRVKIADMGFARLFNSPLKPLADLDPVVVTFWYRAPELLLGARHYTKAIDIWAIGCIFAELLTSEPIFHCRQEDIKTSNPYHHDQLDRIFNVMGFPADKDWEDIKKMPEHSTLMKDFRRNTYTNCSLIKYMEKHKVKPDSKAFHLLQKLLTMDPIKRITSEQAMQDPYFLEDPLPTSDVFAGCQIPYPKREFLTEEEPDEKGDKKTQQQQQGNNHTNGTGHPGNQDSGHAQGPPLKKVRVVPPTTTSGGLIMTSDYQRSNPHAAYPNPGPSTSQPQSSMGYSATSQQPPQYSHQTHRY

Mus musculus [11] = assay: Anti-inflammatory activity in C57BL/6 mouse model of inflammatory bowel disease assessed as reduction in number of DSS-induced inflammatory cells in colon tissue at 5 to 20 mg/kg, po daily measured after 10 days by hematoxylin and eosin staining based histopathological analysis; assay type: functional, organism-based; conditions: dose 5-20 mg/kg, time 10.0 day
Mus musculus [12] = assay: Anti-inflammatory activity in DSS-induced C57BL/6 mouse model of inflammatory bowel disease assessed as increase in JAK1 phosphorylation in colon tissue at 5 to 20 mg/kg, po measured after 10 days by western blot analysis; assay type: functional, organism-based; conditions: dose 5-20 mg/kg, time 10.0 day
Mus musculus [13] = assay: Anti-inflammatory activity in C57BL/6 mouse model of inflammatory bowel disease assessed as decrease in DSS-induced P38 phosphorylation in colon tissue at 5 to 20 mg/kg, po measured after 10 days by western blot analysis; assay type: functional, organism-based; conditions: dose 5-20 mg/kg, time 10.0 day, DDE = dose-dependent effect
[14] = biological target: Cyclin-dependent kinase 8 (Homo sapiens) (UniProt P49336); assay: Binding affinity to CDK8 in human HCT-116 cells assessed as increase in thermal stability tolerance at 10 uM treated for 4 hrs followed by compound washout by CETSA assay; assay type: cell-based
Mus musculus [15] = assay: Anti-inflammatory activity in C57BL/6 mouse model of inflammatory bowel disease assessed as decrease in DSS-induced IL-6 levels in serum at 5 to 20 mg/kg, po daily measured after 10 days by ELISA method; assay type: functional, organism-based; conditions: dose 5-20 mg/kg, time 10.0 day
[16] = AUC (0 to infinity) in Sprague-Dawley rat at 5 mg/kg, iv measured for 3 to 1440 mins by HPLC analysis; assay type: ADME, organism-based; conditions: in vivo
[17] = AUC (0 to infinity) in Sprague-Dawley rat at 10 mg/kg, po measured for 3 to 1440 mins by HPLC analysis; assay type: ADME, organism-based; conditions: in vivo
[18] = MRT in Sprague-Dawley rat at 5 mg/kg, iv measured for 3 to 1440 mins by HPLC analysis; assay type: ADME, organism-based; conditions: in vivo, time 3-1440 min
[19] = Tmax in Sprague-Dawley rat at 10 mg/kg, po measured for 3 to 1440 mins by HPLC analysis; assay type: ADME, organism-based; conditions: in vivo, time 3-1440 min
[20] = Cmax in Sprague-Dawley rat at 5 mg/kg, iv measured for 3 to 1440 mins by HPLC analysis; assay type: ADME, organism-based; conditions: in vivo

For `CCc1ccccc1NC(=O)c1cncc(-c2ccc(C(=O)N3CCNCC3)cc2)c1`, the Activity [1] was “Non-Toxic”, the Activity [2] was “Non-Toxic” and the Activity (Mus musculus [3]) was “Active”. For the same compound, the inhibition [4] was “Active”, the Activity [5] was “Dde” and the Activity (Mus musculus [6]) was “Dde”. For the same compound, the Activity (Mus musculus [7]) was “Dde”, the Activity (Mus musculus [8]) was “Active” and the Cmax [9] was 237 ng/mL. The inhibition [10] was “Active”, the Activity (Mus musculus [11]) was “Active” and the Activity (Mus musculus [12]) was “Active”. For the same compound, the Activity (Mus musculus [13]) was “Dde”, the Activity [14] was “Active” and the Activity (Mus musculus [15]) was “Active”. It also gave an AUC(0-inf) [16] of 642 ng·h/mL, an AUC(0-inf) [17] of 520 ng·h/mL and an MRT [18] of 1.97 h. The Tmax [19] was 0.73 h and the Cmax [20] was 528 ng/mL.
